One assay addresses c-Src (Homo sapiens, UniProt P12931). Kind of assay: IC50 inhibitory activity against c-Src kinase. The format is biochemical. The procedure: (§1) IC50 values were calculated by measuring the inhibitory activity against LCK, c-Src, p38a/MAPK14, ABL1, DDR1 and FGR kinases of the compounds of the present invention.
A further assay concerns the target LCK (Homo sapiens, UniProt P06239). As to the kind of experiment: IC50 inhibitory activity against LCK kinase. It counts as biochemical. The procedure: as §1

Read-outs that look alike come from different tables or passages of the source. Square brackets hold non-standard residues; d marks the D form. Peptide text beside a SMILES is read from it. * marks the point of attachment. X1 = Cc1ccc(Nc2ncc3c(n2)N(C)C(=O)N(c2cc(C(=O)*)ccc2C)C3)cn1; Ac4c = NC1(C(=O)O)CCC1; Ac3c = NC1(C(=O)O)CC1; Aib = CC(C)(N)C(=O)O

Broadly, the IC50 is the point on the concentration scale where inhibition reaches its midpoint.

Chain of LCK (P06239 whole entry): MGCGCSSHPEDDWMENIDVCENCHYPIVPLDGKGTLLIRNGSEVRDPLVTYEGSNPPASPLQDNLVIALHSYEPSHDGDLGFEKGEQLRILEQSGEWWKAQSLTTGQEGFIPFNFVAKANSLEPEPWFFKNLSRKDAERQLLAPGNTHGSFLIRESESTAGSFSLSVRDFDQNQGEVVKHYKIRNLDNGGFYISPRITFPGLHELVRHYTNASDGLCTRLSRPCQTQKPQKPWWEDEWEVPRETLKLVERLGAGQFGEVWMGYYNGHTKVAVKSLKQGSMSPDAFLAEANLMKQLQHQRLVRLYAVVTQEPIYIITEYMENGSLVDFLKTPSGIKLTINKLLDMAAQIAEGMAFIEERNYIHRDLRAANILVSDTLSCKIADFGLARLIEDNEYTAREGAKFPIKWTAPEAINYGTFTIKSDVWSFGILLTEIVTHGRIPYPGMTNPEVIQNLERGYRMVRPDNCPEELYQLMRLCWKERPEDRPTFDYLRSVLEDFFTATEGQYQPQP
Chain of c-Src (P12931 whole entry): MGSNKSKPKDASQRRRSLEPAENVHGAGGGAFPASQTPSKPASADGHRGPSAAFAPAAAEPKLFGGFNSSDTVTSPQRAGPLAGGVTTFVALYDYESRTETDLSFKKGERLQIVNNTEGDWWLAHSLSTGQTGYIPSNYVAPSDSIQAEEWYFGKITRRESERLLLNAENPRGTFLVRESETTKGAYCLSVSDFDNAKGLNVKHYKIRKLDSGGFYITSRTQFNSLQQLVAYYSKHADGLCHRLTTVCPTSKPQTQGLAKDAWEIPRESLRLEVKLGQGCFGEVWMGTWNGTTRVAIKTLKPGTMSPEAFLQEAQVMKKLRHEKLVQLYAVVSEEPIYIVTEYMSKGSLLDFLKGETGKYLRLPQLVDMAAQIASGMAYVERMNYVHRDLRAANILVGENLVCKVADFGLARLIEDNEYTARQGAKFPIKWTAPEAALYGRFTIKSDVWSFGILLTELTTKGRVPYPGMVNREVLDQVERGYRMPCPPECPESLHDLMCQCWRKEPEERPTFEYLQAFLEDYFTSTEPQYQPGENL

Regarding `Cc1ccc(Nc2ncc3c(n2)N(C)C(=O)N(c2cc(C(=O)N[C@@H](C(=O)N4CCC[C@@H]4C(=O)NC(C)(C)C(=O)N[C@H](CC(C)C)C(=O)N(C)C)C(C)C)ccc2C)C3)cn1` [Example 10, (R)—N-(1-(((R)-1-(dimethylamino)-4-methyl-1-oxopentan-2-yl)amino)-2-methyl-1-oxopropan-2-yl)-1-((4-methyl-3-(1-methyl-7-((6-methylpyridin-3-yl)amino)-2-oxo-1,4-dihydropyrimido[4,5-d]pyrimidin-3(2H)-yl)benzoyl)-D-valyl)pyrrolidine-2-carboxamide] (X1-[dV][dP][Aib][dL]-NMe2), the concentration for half-maximal inhibition (IC50) against c-Src was more than 0.6 µM; against LCK, 0.2 to 0.4 µM.

Consider `Cc1ccc(Nc2ncc3c(n2)N(C)C(=O)N(c2cc(C(=O)N[C@@H](Cc4ccccc4)C(=O)N4CCC[C@H]4C(=O)NC(C)(C)C(=O)N[C@H](C(=O)N(C)C)C(C)C)ccc2C)C3)cn1` [Example 24, (S)—N-(1-(((S)-1-(dimethylamino)-3-methyl-1-oxobutan-2-yl)amino)-2-methyl-1-oxopropan-2-yl)-1-((4-methyl-3-(1-methyl-7-((6-methylpyridin-3-yl)amino)-2-oxo-1,4-dihydropyrimido[4,5-d]pyrimidin-3(2H)-yl)benzoyl)-L-phenylalanyl)pyrrolidine-2-carboxamide] (X1-FP[Aib]V-NMe2), for which the figures for the half-maximal inhibitory concentration (IC50) on c-Src (read-out: c-Src IC50) and at LCK (read-out: LCK IC50) were more than 0.6 µM and 0.001 to 0.2 µM, respectively.

With `COCCN1C(=O)[C@H](CC(C)C)N=C(c2ccccc2)c2ccc(C(=O)Nc3ccc(C)c(N4Cc5cnc(Nc6ccc(C)nc6)nc5N(C)C4=O)c3)cc21` [Example 42, (S)-3-isobutyl-1-(2-methoxyethyl)-N-(4-methyl-3-(1-methyl-7-((6-methylpyridin-3-yl)amino)-2-oxo-1,4-dihydropyrimido[4,5-d]pyrimidin-3(2H)-yl)phenyl)-2-oxo-5-phenyl-2,3-dihydro-1H-benzo[e][1,4]diazepine-8-carboxamide], the 50% inhibitory concentration (IC50) at c-Src (read-out: c-Src IC50) and on LCK (read-out: LCK IC50) was 0.001 to 0.2 µM each time.

`Cc1ccc(Nc2ncc3c(n2)N(C)C(=O)N(c2cc(C(=O)N[C@H](C(=O)N4CCC[C@H]4C(=O)NC(C)(C)C(=O)N[C@H](C(=O)N(C)C)C(C)C)C(C)C)ccc2C)C3)cn1` [Example 22, (S)—N-(1-(((S)-1-(dimethylamino)-3-methyl-1-oxobutan-2-yl)amino)-2-methyl-1-oxopropan-2-yl)-1-((4-methyl-3-(1-methyl-7-((6-methylpyridin-3-yl)amino)-2-oxo-1,4-dihydropyrimido[4,5-d]pyrimidin-3(2H)-yl)benzoyl)-L-valyl)pyrrolidine-2-carboxamide] (X1-VP[Aib]V-NMe2): the IC50 on c-Src (read-out: c-Src IC50) and on LCK (read-out: LCK IC50) was more than 0.6 µM each time.

`CC1=N[C@@H](CC(C)C)C(=O)N(C)c2cc(C(=O)Nc3ccc(C)c(N4Cc5cnc(Nc6ccc(C)nc6)nc5N(C)C4=O)c3)ccc21` [Example 40, (S)-3-isobutyl-1,5-dimethyl-N-(4-methyl-3-(1-methyl-7-((6-methylpyridin-3-yl)amino)-2-oxo-1,4-dihydropyrimido[4,5-d]pyrimidin-3(2H)-yl)phenyl)-2-oxo-2,3-dihydro-1H-benzo[e][1,4]diazepine-8-carboxamide]: the 50% inhibitory concentration (IC50) at c-Src (read-out: c-Src IC50) and at LCK (read-out: LCK IC50) was 0.001 to 0.2 µM each time.

As to `Cc1ccc(Nc2ncc3c(n2)N(C)C(=O)N(c2cc(C(=O)N[C@H](C(=O)N4CCC[C@H]4C(=O)NC(C)(C)C(=O)NCC(=O)N(C)C)C(C)C)ccc2C)C3)cn1` [Example 14, (S)—N-(1-((2-(dimethylamino)-2-oxoethyl)amino)-2-methyl-1-oxopropan-2-yl)-1-((4-methyl-3-(1-methyl-7-((6-methylpyridin-3-yl)amino)-2-oxo-1,4-dihydropyrimido[4,5-d]pyrimidin-3(2H)-yl)benzoyl)-L-valyl)pyrrolidine-2-carboxamide] (X1-VP[Aib]G-NMe2), the half-inhibitory concentration (IC50) against c-Src is more than 0.6 µM; at LCK it was 0.001 to 0.2 µM.

On to `C=CCCC1=N[C@@H](CC(=O)Nc2ccc(C)c(N3Cc4cnc(Nc5ccc(C)nc5)nc4N(C)C3=O)c2)C(=O)Nc2ccccc21` [Example 44, (S)-2-(5-(but-3-en-1-yl)-2-oxo-2,3-dihydro-1H-benzo[e][1,4]diazepin-3-yl)-N-(4-methyl-3-(1-methyl-7-((6-methylpyridin-3-yl)amino)-2-oxo-1,4-dihydropyrimido[4,5-d]pyrimidin-3(2H)-yl)phenyl)acetamide], for which the concentration for half-maximal inhibition (IC50) at c-Src (read-out: c-Src IC50) and at LCK (read-out: LCK IC50) was 0.001 to 0.2 µM each time.

Turning to `Cc1ccc(Nc2ncc3c(n2)N(C)C(=O)N(c2cc(C(=O)N[C@H](C(=O)N4CCC[C@@H]4C(=O)NCC(=O)N[C@@H](CC(C)C)C(=O)N(C)C)C(C)C)ccc2C)C3)cn1` [Example 5, (R)—N-(2-(((S)-1-(dimethylamino)-4-methyl-1-oxopentan-2-yl)amino)-2-oxoethyl)-1-((4-methyl-3-(1-methyl-7-((6-methylpyridin-3-yl)amino)-2-oxo-1,4-dihydropyrimido[4,5-d]pyrimidin-3(2H)-yl)benzoyl)-L-valyl)pyrrolidine-2-carboxamide] (X1-V[dP]GL-NMe2), the values for the half-maximal inhibitory concentration (IC50) against c-Src and against LCK were more than 0.6 µM and 0.001 to 0.2 µM, respectively.

Consider `Cc1ccc(Nc2ncc3c(n2)N(C)C(=O)N(c2cc(C(=O)N[C@H](C(=O)N4CCC[C@H]4C(=O)NC4(C(=O)N[C@@H](CC(C)C)C(=O)N(C)C)CC4)C(C)C)ccc2C)C3)cn1` [Example 4, (S)—N-(1-(((S)-1-(dimethylamino)-4-methyl-1-oxopentan-2-yl)carbamoyl)cyclopropyl)-1-((4-methyl-3-(1-methyl-7-((6-methylpyridin-3-yl)amino)-2-oxo-1,4-dihydropyrimido[4,5-d]pyrimidin-3(2H)-yl)benzoyl)-L-valyl)pyrrolidine-2-carboxamide] (X1-VP[Ac3c]L-NMe2), for which the half-maximal inhibitory concentration (IC50) lay within 0.2 to 0.4 µM against c-Src and 0.001 to 0.2 µM against LCK.

For the compound `C=CCCC1=N[C@@H](CC(=O)Nc2ccc(C)c(N3Cc4cnc(Nc5ccc(C)nc5)nc4N(C)C3=O)c2)C(=O)N(C)c2ccccc21` [Example 45, (S)-2-(5-(but-3-en-1-yl)-1-methyl-2-oxo-2,3-dihydro-1H-benzo[e][1,4]diazepin-3-yl)-N-(4-methyl-3-(1-methyl-7-((6-methylpyridin-3-yl)amino)-2-oxo-1,4-dihydropyrimido[4,5-d]pyrimidin-3(2H)-yl)phenyl)acetamide], the IC50 on c-Src (read-out: c-Src IC50) and on LCK (read-out: LCK IC50) was 0.001 to 0.2 µM throughout.

In the case of `Cc1ccc(Nc2ncc3c(n2)N(C)C(=O)N(c2cc(C(=O)N[C@H](C(=O)N4CCC[C@H]4C(=O)NC4(C(=O)N[C@@H](CC(C)C)C(=O)N(C)C)CCC4)C(C)C)ccc2C)C3)cn1` [Example 12, (S)—N-(1-(((S)-1-(dimethylamino)-4-methyl-1-oxopentan-2-yl)carbamoyl)cyclobutyl)-1-((4-methyl-3-(1-methyl-7-((6-methylpyridin-3-yl)amino)-2-oxo-1,4-dihydropyrimido[4,5-d]pyrimidin-3(2H)-yl)benzoyl)-L-valyl)pyrrolidine-2-carboxamide] (X1-VP[Ac4c]L-NMe2), the results for the IC50 against c-Src and at LCK were more than 0.6 µM and 0.001 to 0.2 µM, respectively.

Values taken from patent US11530221B2, “Pyrimido[4,5-d]pyrimidin-2-one derivatives as protein kinase inhibitors” (KOREA INSTITUTE OF SCIENCE AND TECHNOLOGY, priority 2019, dated 2022).
